Where “and” joins values, the source holds several entries; their conditions need not be identical. Identical values can stand only once. Like-named read-outs stand apart in the source and are kept apart here.
Legend:
[1] = General toxicity in nude mice (mortality, tolerance, body weight); assay type: in vivo
Protocol: (§1) When the tumor size reached a volume of 150 (150-220) mm^3, the tumor-bearing nude mice derived from MCF-7 cells were randomly assigned into 3 groups (10 mice/group): Group 1 was served as vehicle group (25% PEG400, 200 μl/20 g mouse, i.p, qd for 21 days and 25% PEG400, 400 μl/20g mouse, i.p, qd for 13 days), group 2 was administrated with derivative ‘A’ (5 mg/kg for 21 days and 10 mg/kg for 13 days, i.p, qd), group 3 was administrated with plumbagin (2 mg/kg for 21 days, i.p, qd). The administration period lasted for 3 weeks and 5 weeks. The detailed sacrificing schedule is described in section 5.
If abnormal appearance and behavior or signs of morbidity and/or mortality was seen through the cage side observation, the veterinarian would be notified and proper physical examination and/or necropsy would be performed. The food consumption in each group would be recorded. Frequency: daily just after the cell inoculation and twice a day thereafter starting on first dosing.
(§2) The tumor volume was measured every other day with calipers, and the body weight was measured immediately before measuring the tumor volume throughout the whole study. If the body weight loss is approaching 20%, stop dosing or decreased dosage will be carried out.
The use of different treatment concentrations (dosages) of derivative ‘A’ and plumbagin was due to the high toxicity of plumbagin at 5 mg/kg dose (8 mice died due to toxicity in first few days).

MCF-7 cells [2] = test: APOPercentage dye-uptake apoptosis assay, MCF-7; assay type: cell-based, human
Protocol: (§3) To further test if the cancer cells in present investigation are dying via apoptosis, a dye inclusion assay called APOPercentage was performed. APOPercentage™ is a dye-uptake assay that detects apoptotic cells during phospholipid phosphatidylserine (PS) trans-membrane movement. It has been established previously that APOPercentage™ can be used to detect early stages of apoptosis as efficiently as other technologies like Annexin V.
(§4) The cells were plated in 96 well plates at a density of 5×10^3 cells per well in triplicate in 90 μl of media. The cells were treated with 10 μl of desired concentration of plumbagin and derivative ‘A’ in DMEM media. The cells were incubated at 37° C. for 12 hr and 24 hr in different plates. 5 mM H2O2 was treated for 30 minutes to 1 hour as a positive control. The cells were stained with APOPercentage dye as per instructions from the vendor (Biocolor, UK). The cells were photographed with Nikon TS100 microscope. The OD was measured at 550 nm absorbance using BMG Pherastar and percentage of cells taking up APOPercentage dye was calculated.

MCF-7 tumor = test: MCF-7 xenograft tumor inhibition in nude mice; assay type: in vivo; parameters: Tumor weight at autopsy, individual mouse (1-5) / Tumor weight at autopsy, AV: unit not given here; details: for Tumor volume measured externally, AV / Tumor volume measured externally, individual mouse (1-5) / Tumor weight at autopsy, AV / Tumor weight at autopsy, individual mouse (1-5) / Tumor inhibition rate (C − T)/C × 100%, tumor volume / Tumor inhibition rate (C − T)/C × 100%, tumor weight: Compound A 5 mg/kg, Compound P 2 mg/kg, i.p, qd*21 days; for Tumor inhibition rate (C − T)/C × 100%, tumor volume: based on tumor volume by calipers; for Tumor inhibition rate (C − T)/C × 100%, tumor weight: based on tumor weight at autopsy
Protocol: Amplified and implanted (S.C.) the cancer cells (MCF-7) into 4 nude mice with 1.0×10^7 cells in 0.1 ml PBS plus matrigel (1:1) /mouse, when tumors reach 300-500 mm^3, the tumor masses were harvested, cut into small pieces of approximately 1-2 mm^3, and then surgically implanted into the 42 new nude mice for model set up (eventually 30 tumor-bearing mice are selected).
as §1, §2
Tumor sizes were measured every other day in two dimensions using a caliper, and the volume were expressed in mm^3 using the formula: V=½×a×b^2 where a and b are the long and short diameters of the tumor, respectively.
The tumor mass were weighed and photographed at the end of the experiment after harvested.
Inhibition rate (%)=(average tumor volume of control group-average cancer volume of test group)/average tumor volume of control group ×100%

[3] = system: HepG2 (Hepatocellular carcinoma) cell line; test: MTT cytotoxicity assay, HepG2 (in vitro hepatotoxicity model); details: for IC50: read-out: IC50 against HepG2
Protocol: (§5) The cytotoxicity of plumbagin and derivative ‘A’ was estimated by MTT assay. Cells were plated in a 384-well culture plates (2000 cells per well in 20 μl of media) for 24 h and cells were treated with various concentrations (0, 1.0, 5.0, 10.0, 20.0, 40.0, 80.0 and 100.0 μM) for 12 hr, 24 hr, 36 hr and 48 hr. Following desired incubation time, 5 μl of sterile 5 mg/ml MTT (3-(4,5-Dimethylthiazol-z-yl)-2,5diphenyltetrazolium bromide) (Sigma) dissolved in PBS was added to each well and the cells were incubated for another 4 hr followed by the addition of 30 μl of solubilisation solution (10% SDS, 10 mM HCl) and incubation for 16 hr at 37° C. The OD of each well at 595 nm was determined using a microtiter plate reader (BMG Pherastar).

[4] = system: MCF-7 (human breast cancer cell line); test: MTT cytotoxicity assay, MCF-7
Protocol: as §5

[5] = Description: At the end of the experiment (the 22nd day after initiating drug treatment), the blood from some tumor-bearing mice per group (4 mice from the group 1, 5 mice from the group 2, 4 mice from the group 3) were collected by cardiac puncture, and the mice were sacrificed by cervical dislocation while under deep anesthesia. The other tumor-bearing mice from each group (5 mice from the group 1, 5 mice from the group 2) were sacrificed after another 13 days treatment (the 35th day after initiating drug treatment), the blood was collected while sacrificing the mice. The tumor samples were harvested, weighed, cut into small pieces and snap frozen in liquid nitrogen for RNA extraction. The liver were harvested and fixed in 10% NBF, and embedded in paraffin for histology analysis.
Blood were collected from all animals by terminal bleed for subsequent serum preparation, and serum was prepared at the end of the study for each animal. Serum samples were frozen in microcentrifuge tube at −80° C. To test the liver toxicity of the two compounds, biochemical dictators (ALT, AST) were analyzed in all the serum samples no more than 3 days after collection. The excess serum samples would be sent to client.
The serum was collected as explained above in methods and was used to assess the activity of ALT (alanine aminotransferase) and AST (aspartate aminotransferase).

[6] = system: BJ cell line (human normal fibroblast cells); test: MTT cytotoxicity assay, BJ normal fibroblasts
Protocol: as §5

[7] = Liver tissue H&E staining; assay type: in vivo, nude mice; details: FIG. 12
Protocol: To test the liver toxicity of the two compounds, livers were harvested from all animals while sacrificing the animals. One piece of the liver was fixed in 10% NBF, and embeded in paraffin for pathology analysis, 1 paraffin block was prepared from each liver sample, 2 slides were used for H&E staining.
The following indications were examined on the photographs for liver tissue H&E staining (FIG. 12): (1) If the liver cells produce fatty degeneration, necrosis, hepatic lobule inflammation or not; (2) If the hepaticus sinus produce dilation or hyperaemia or not; (3) If the hepaticus portal area produce the inflammation or fibrous tissue hyperplasia or not. According to pathology degree from low to high: no lesion “−”, minor lesion “±”, low lesion “+”, middle lesion “++”, high lesion “+++”, highest lesion “++++”. […] The vehicle control is rather showing more toxicity to liver as compared to compounds under testing.

MCF-7 cells [8] = test: Microarray expression and pathway analysis in MCF-7 cells; assay type: cell-based, human; details: for 'Atherosclerosis signaling' pathway: MCF-7 induced with 5 and 10 μM, IPA pathway mapping
Protocol: Microarray analysis was performed in an effort to identify the possible mechanism of action of derivative ‘A’. The MCF-7 cells induced with 5 and 10 μM of derivative ‘A’ and plumbagin were subjected to microarray experiments and the fold-change in expression was calculated as compared to untreated samples. The lists of differentially expressed genes were mapped to pathways using Ingenuity Pathway Analysis (IPA) tool and several key pathways affected by treatment of derivative ‘A’ and plumbagin were identified. ‘Atherosclerosis signaling’ was one of the key pathways that were affected by derivative ‘A’ and not the plumbagin.

BJ cells = test: APOPercentage dye-uptake apoptosis assay, BJ; assay type: cell-based, human
Protocol: as §3, §4

[9] = after 24 hr (20 μM per preceding sentence)
[10] = MTT time-course screening (12, 24, 36, 48 hr)

CC(=O)Oc1cccc2c1C(=O)C=C(C)C2=O [derivative ‘A’, acetyl plumbagin]
animal deaths with treatment ([1]; 5 mg/kg 21 days, 10 mg/kg 13 days, i.p, qd): No animal died
body weight loss ([1]; in the course of the treatment): minimum
apoptosis induced in cancer cells (MCF-7 cells [2]; 10 μM, 24 hr): about 50%
cancer cells undergoing apoptosis (MCF-7 cells [2]; [9]): 100%
Tumor volume measured externally, AV (MCF-7 tumor): 420.9 mm^3
Tumor volume measured externally, individual mouse (1-5) (MCF-7 tumor): 493.1 mm^3 and 595.4 mm^3 and 151.4 mm^3 and 486.0 mm^3 and 378.5 mm^3
Tumor weight at autopsy, AV (MCF-7 tumor): 0.3145
Tumor weight at autopsy, individual mouse (1-5) (MCF-7 tumor): 0.3930 and 0.3862 and 0.3802 and 0.3290 and 0.0843
Tumor inhibition rate (C − T)/C × 100%, tumor volume (MCF-7 tumor): 37.69%
Tumor inhibition rate (C − T)/C × 100%, tumor weight (MCF-7 tumor): 44.96%
tumor size (FIGS. 6A-6B) (MCF-7 tumor; group of treated mice versus other groups): smaller
hepatotoxicity (data based on HepG2 cell line) [3, 10]: negligible
IC50 ([3]; HepG2, 24 hr of treatment): 41.2 µM
cytotoxicity in MCF-7 ([4]; 10 μM, 12 hr of treatment): comparative to plumbagin
inhibits metabolic activity of cancer cells ([4]; 10 μM, after 12 hr of treatment (FIG. 2)): 90%
activity against MCF-7 cells [4, 10]: selective apoptotic activity
ALT and AST values ([5]; in vivo summary): low
mean ALT value (FIG. 10) ([5]; outliers removed): lower than plumbagin and even lower than vehicle treated mice
toxicity against BJ cell line ([6]; 10 μM, 12 hr): almost nil
toxicity against BJ cell line, times less than plumbagin ([6]; 10 μM, 24 hr, compared to plumbagin at the same concentration): ~20 times
normal cells BJ inhibited ([6]; 20 μM, after 36 hr of treatment (FIG. 2)): 20%
effect on normal fibroblasts [6, 10]: relatively unaffected
toxicity in BJ cell line, folds less than Plumbagin ([6]; after 36 hr of induction): ~4.5 folds
liver toxicity by H&E staining of liver tissue [7]: less toxic to liver as compared to plumbagin
gene families down-regulated as compared to untreated samples (MCF-7 cells [8]; MCF-7, 10 μM, interleukins, MMPs, CXCL family members): > 2 fold
'Atherosclerosis signaling' pathway (MCF-7 cells [8]): affected
safety for normal cells (BJ cells; 10 μM, treatment for 24 hr): safe
normal cells undergoing apoptosis (BJ cells; [9]): 20%
effect on normal cells (growth inhibition and apoptosis) (BJ cells; up to 20 μM, treatment for 12 hr): relatively unaffected

CC1=CC(=O)c2c(O)cccc2C1=O [plumbagin, 5-hydroxy-2-methyl-1,4-naphthoquinone, reference compound]
tolerance by mice (body weight loss) ([1]; 2 mg/kg dose, separate regimen with 1, 2 and 3 mg/kg): well tolerated
apoptosis in cancer cells (MCF-7 cells [2]; 5 μM, within 24 hr of treatment): induces apoptosis
Tumor volume measured externally, AV (MCF-7 tumor): 560.2 mm^3
Tumor weight at autopsy, AV (MCF-7 tumor): 0.6020
Tumor volume measured externally, individual mouse (1-5) (MCF-7 tumor; listed as Compound P): 1441.7 mm^3 and 260.9 mm^3 and 234.5 mm^3 and 303.8 mm^3
Tumor weight at autopsy, individual mouse (1-5) (MCF-7 tumor; listed as Compound P): 1.3530 and 0.4301 and 0.3675 and 0.2574
Tumor inhibition rate (C − T)/C × 100%, tumor volume (MCF-7 tumor): 17.07%
Tumor inhibition rate (C − T)/C × 100%, tumor weight (MCF-7 tumor): −5.35%
IC50 ([3]; Homo sapiens, HepG2, 24 h): 10.2 µM
inhibition at 5 µM ([4]; Homo sapiens, MCF7, 12 h, read-out: inhibits metabolic activity of cancer cells): 90%
inhibition at 10 µM ([6]; Homo sapiens, BJ, 12 h, read-out: inhibits metabolic activity of normal cells BJ): ~70%
'Atherosclerosis signaling' pathway (MCF-7 cells [8]): not

Source: patent publication US9890106B2, “Anti-cancer lead molecule” (KING ABDULLAH UNIVERSITY OF SCIENCE AND TECHNOLOGY, priority 2012, dated 2018)
